# Results taken from patent publication US20190231771A1, “METHODS FOR TREATMENT AND PREVENTION OF OPIOID INDUCED CONSTIPATION USING ORAL COMPOSITIONS OF METHYLNALTREXONE” (Salix Pharmaceuticals, Ltd., priority 2011, published 2019).
# Legend:
# Assay type in all cases: in vivo, human
# [1] = Study C: single and multiple dose pharmacokinetics of MNTX and metabolites, MNTX 450 mg PO x 7 days; conditions: for t1/2 / AUC0-24 / AUCinf / Cmax / Tmax / Metabolite/MNTX Ratio / R (PO), accumulation factor: 450 mg Tablets oral; for Metabolite/MNTX Ratio: 100*(Metabolite AUC24/MNTX AUC24); for R (PO), accumulation factor: AUC0-24 on Day 7/AUC0-24 on Day 1; for metabolite to MNTX ratios following oral administration: day and AUC basis not stated
# Procedure: (§1) Presented herein is a clinical pharmacokinetics study, Study C, as well as Studies A and B. Study A investigated the single and multiple dose pharmacokinetics of methylnaltrexone (MNTX) and its metabolites (M2: methylnaltrexone sulfate; M4: 6α-methylnaltrexol; and M5: 6β-methylnaltrexol) following the subcutaneous administration of 12 mg methylnaltrexone. In Study B, the single and multiple dose pharmacokinetics of methylnaltrexone (MNTX) and its metabolites (M2, M4, and M5) were examined following a 20-minute short intravenous infusion of 24 mg of methylnaltrexone (MNTX).
# In addition, the urinary elimination of MNTX was characterized.
# (§2) Pharmacokinetic parameters included Cmax, AUCt, AUCinf, tmax, t1/2, % Re24, accumulation factor (R) as defined below and metabolite/parent drug ratio.
# (§3) R=Accumulation Factor(based on AUC0-24(ng·h/mL):Day 7 AUC AUC0-24/Day 1 AUC0-24
# (§4) Metabolite-Parent Drug ratio(based on ng·h/mL)(%)=100*(Metabolite AUC24/MNTX AUC24)
# (§5) Note: AUCinf was used in place of AUC AUC0-24 for R and Metabolite-Parent Drug ratio computations following IV administration.
# [2] = Study B: single and multiple dose pharmacokinetics after 20-minute intravenous infusion of 24 mg methylnaltrexone; conditions: 24 mg IV infusion; for t1/2 / AUC0-6: day not given; for AUC0-6: mean; for Metabolite ÷ MNTX Ratio / R (IV), accumulation factor: AUCinf used
# Procedure: as §1, §2, §3, §4, §5
# [3] = Study A: single and multiple dose pharmacokinetics after subcutaneous 12 mg methylnaltrexone; conditions: 12 mg SC Injection; for t1/2: day not given, harmonic mean; for R (SC), accumulation factor: AUC0-24 on Day 7/AUC0-24 on Day 1
# Procedure: as §1, §2, §3, §4, §5
Compound,"t1/2 ([1]; Day 1, harmonic mean)","AUC0-24 ([1]; Day 1, mean)","AUCinf ([1]; Day 1, mean)","Cmax ([1]; Day 1, mean)","Tmax ([1]; Day 1, median)",Metabolite/MNTX Ratio ([1]; Day 1),"t1/2 ([1]; Day 7, harmonic mean)","AUC0-24 ([1]; Day 7, mean)","AUCinf ([1]; Day 7, mean)","Cmax ([1]; Day 7, mean)","Tmax ([1]; Day 7, median)",Metabolite/MNTX Ratio ([1]; Day 7),"R (PO), accumulation factor [1]",metabolite to MNTX ratios following oral administration [1],"AUCinf ([2]; Day 1, mean)","Cmax ([2]; Day 1, mean)","AUCinf ([2]; Day 7, mean)","Cmax ([2]; Day 7, mean)",t1/2 [2],AUC0-6 [2],further results
"C[N@+]1(CC2CC2)CC[C@]23c4c5ccc(O)c4O[C@H]2[C@@H](O)CC[C@@]3(O)[C@H]1C5 [M4, 6α-methylnaltrexol]",17.48 h,79.73 ng·h/mL,124.23 ng·h/mL,9.01 ng/mL,2.0003 h,29.70%,31.85 h,119.61 ng·h/mL,221.13 ng·h/mL,10.77 ng/mL,2.0007 h,38.50%,1.62,54.21%,61.30 ng·h/mL,11.0 ng/mL,54.0 ng·h/mL,18.10 ng/mL,12.28 h,28.8 ng·h/mL,"Metabolite ÷ MNTX Ratio [2]: 14.90%; R (IV), accumulation factor [2]: 2.08; Metabolite/MNTX Ratio ([3]; Day 1): 15.81%; AUC0-24 ([3]; Day 1, mean): 34.66 ng·h/mL; AUCinf ([3]; Day 1, mean): 38.3 ng·h/mL; Cmax ([3]; Day 1, mean): 4.64 ng/mL; Tmax ([3]; Day 1, median): 1.0 h; Metabolite/MNTX Ratio ([3]; Day 7): 18.75%; AUC0-24 ([3]; Day 7, mean): 41.86 ng·h/mL; AUCinf ([3]; Day 7, mean): 41.9 ng·h/mL; Cmax ([3]; Day 7, mean): 4.33 ng/mL; Tmax ([3]; Day 7, median): 1.0 h; t1/2 [3]: 7.59 h; R (SC), accumulation factor [3]: 1.25"
"C[N@+]1(CC2CC2)CC[C@]23c4c5ccc(O)c4O[C@H]2[C@H](O)CC[C@@]3(O)[C@H]1C5 [M5, 6β-methylnaltrexol]",18.40 h,40.84 ng·h/mL,73.61 ng·h/mL,3.48 ng/mL,3.13 h,15.10%,28.65 h,66.33 ng·h/mL,120.87 ng·h/mL,4.89 ng/mL,2.69 h,21.41%,1.76,29.78%,35.10 ng·h/mL,3.44 ng/mL,30.0 ng·h/mL,8.71 ng/mL,12.3 h,12.3 ng·h/mL,"Metabolite ÷ MNTX Ratio [2]: 8.69%; R (IV), accumulation factor [2]: 2.91; Metabolite/MNTX Ratio ([3]; Day 1): 6.58%; AUC0-24 ([3]; Day 1, mean): 14.41 ng·h/mL; AUCinf ([3]; Day 1, mean): 18.5 ng·h/mL; Cmax ([3]; Day 1, mean): 1.17 ng/mL; Tmax ([3]; Day 1, median): 2.0 h; Metabolite/MNTX Ratio ([3]; Day 7): 8.72%; AUC0-24 ([3]; Day 7, mean): 19.51 ng·h/mL; AUCinf ([3]; Day 7, mean): 19.5 ng·h/mL; Cmax ([3]; Day 7, mean): 1.42 ng/mL; Tmax ([3]; Day 7, median): 2.0 h; t1/2 [3]: 8.13 h; R (SC), accumulation factor [3]: 1.42"
methylnaltrexone sulfate [M2],7.19 h,188.63 ng·h/mL,216.89 ng·h/mL,17.15 ng/mL,4.02 h,72.69%,13.87 h,243.72 ng·h/mL,320.51 ng·h/mL,21.00 ng/mL,4.02 h,79.11%,1.30,81.0%,162 ng·h/mL,16.6 ng/mL,176 ng·h/mL,37.70 ng/mL,5.70 h,72.3 ng·h/mL,"Metabolite ÷ MNTX Ratio [2]: 46.60%; R (IV), accumulation factor [2]: 2.61; Metabolite/MNTX Ratio ([3]; Day 1): 28.71%; AUC0-24 ([3]; Day 1, mean): 61.34 ng·h/mL; AUCinf ([3]; Day 1, mean): 71.9 ng·h/mL; Cmax ([3]; Day 1, mean): 6.34 ng/mL; Tmax ([3]; Day 1, median): 4.00 h; Metabolite/MNTX Ratio ([3]; Day 7): 29.30%; AUC0-24 ([3]; Day 7, mean): 66.3 ng·h/mL; AUCinf ([3]; Day 7, mean): 66.3 ng·h/mL; Cmax ([3]; Day 7, mean): 5.70 ng/mL; Tmax ([3]; Day 7, median): 4.00 h; t1/2 [3]: 5.57 h; R (SC), accumulation factor [3]: 1.13"
